Assay results taken from US20210386792A1, “A METHOD FOR INCREASING POPULATION OF SPERMATOGONIAL STEM CELLS” (priority 2018, published 2021).

Assays:
Assay type in all cases: cell-based, mouse
TECs = experiment: GDNF ELISA in conditioned media from TECs; settings: for GDNF production in conditioned media of TECs after FGF-2 treatment: wild-type mouse TECs
Procedure: Testis, lung, or liver ECs were plated (10,000 cells ml^−1) on 12 well dishes coated with 0.1% gelatin and cultured for 24 hours. Conditioned media was harvested at 24 and 48 hours after FGF-2 (2 ng ml^−1, 20 ng ml^−1 and 50 ng ml^−1) treatment and analyzed by ELISA for GDNF (Promega GDNF Emax immunoassay system, #G7621) following the manufacturer's instruction. Statistics was analyzed using Graph Pad Prism. For quantification of Gdnf mRNA, total RNA was isolated from the cells using Direct-zol RNA MiniPrep (Zymo Research) and reverse transcribed using High Capacity cDNA Reverse Transcription Kit (Appliedbiosystems), according to the manufacturer's instructions. All gene expression levels were normalized to GAPDH mRNA levels.
FIG. 2. a. Quantication of GDNF by ELISA in conditioned media from TECs, LuECs and LiECs after treatment with the indicated concentration of FGF-2 for 2 days, n=3. Bar=100 μm. Data are presented as the mean±s.e.m. b. Representative brighteld (BF) and GFP images of 2D cultures of GFP+ SSCs co-cultured with STO cells or TECs plus exogenous GDNF and FGF-2 on days 1 and 8 after seeding. Quantication of stem cell numbers 8 days after co-culture with STO or TECs and the average colony area are shown on the right, n=3. Data are presented as the mean±s.e.m. Bar=100 μm. *P<0.05. c. Images of 2D co-cultures of GFP+Thy1.2+ SSCs with TECs and immunostained with the germ cell marker DDX4. Inset: bar=10 μm. d. The 3D spheroid co-cultures of GFP+Thy-1.2+ SSCs with TECs or LuECs were generated with Matrigel but no exogenous GDNF or FGF-2. GFP+ Spheroid co-cultures were immunostained with DDX4 (red), Oct4 (white) and DAPI (blue) at day 15. Quantication of the average diameter and total number of colonies is shown on the right; n=3. All data are presented as the mean±s.e.m. Bar=50 m, *P<0.05. **P<0.01. e. Representative BF images merged with GFP images of serially passaged GFP+Thy-1.2+ SSCs co-cultured with TECs at the indicated passage number (1st, 2nd, 3rd or 4th) or day (D). […]

EGR-1 = experiment: Western blot of EGR-1 expression in LuECs; settings: LuEC
Text: FIG. 5. GDNF expression in TECs is regulated by CaN-NFAT signaling. a. Immunouorescence images of testis sections immunostained with the stem cell markers DDX4 and Oct4 and DAPI to stain DNA. Testes were harvested from 1-week-old or 4-week-old Euploid or Ts65Dn mice. Quantication of DDX4+ and Oct4+ cells relative to DAPI per high-powered eld (HPF) is shown on the right, ***P<0.0001. Bar=50 μm. Two-way ANOVA test. b. […] Values are mean±s.e.m. n=4. c. Quantication of GDNF levels by ELISA in conditioned media from murine TECs, LuEC and LiEC after 2 ngml-1 FGF-2 treatment in the presence or absence of CsA. Values are mean±s.e.m., n=4. d. H&E-stained cross-sections from testes of age-matched Euploid, Ts65Dn or Ts65Dn mice 5 weeks after implantation with GFP+ TECs isolated from syngeneic wild-type mice (Ts65Dn+GFP+ TECs). Red dotted line encircles mature sperm (yellow arrow) in the lumen of the seminiferous tubules. Immunouorescence images with GFP and DAPI to stain DNA of testis sections from Ts65Dn+GFP+TECs mice. e. Western blot analysis of EGR-1 protein expression in TECs and LuECs untreated or after FGF-2 treatment, expression of constitutively active NFATc1 (caNFATc1) or an empty vector control. Actin was probed as a loading control. f. Quantication of nuclear translocation of EGR1 and NFATc1 in TECs after treatment with conditioned media (CM), 2 ng ml-1 FGF-2±CsA. Values are mean±s.e.m. g. […]

NFATc1 and EGR-1 = experiment: Nuclear translocation of NFATc1 and EGR-1 in TECs; settings: TEC, 2 ng/ml FGF-2

Question: With fibroblast growth factor-2 [FGF-2] as the substance, how does the “GDNF expression in media of Fgfr1−/− TECs after FGF2 treatment” value (TECs; Fgfr1−/− TECs compared to Fgfr1+/+ wild-type TECs) read?
Answer: Its value is “no increase in GDNF expression”.

Question: And the “GDNF production in conditioned media of TECs after FGF-2 treatment” value (TECs)?
Answer: The value was “induced significant levels of GDNF”.

Question: And the “GDNF production in conditioned media of TECs after FGF-2 treatment” value (TECs; listed as FGF2)?
Answer: The value was “stimulated significant GDNF production”.

Question: What about the “EGR-1 expression after FGF-2 treatment” value (EGR-1) of the same substance?
Answer: Its value is “not”.

Question: And the “nuclear localization of EGR1” value (NFATc1 and EGR-1)?
Answer: The value was “increased”.

Question: What about the “nuclear localization of NFATc1” value (NFATc1 and EGR-1) of the same substance?
Answer: The value was “increased”.
